Entries after “also recorded” stand apart in the source; their conditions may differ. Read-outs that look alike come from different tables or passages of the source.
Tests used:
Gli1 = target: T1, Gli1 (Mus musculus, UniProt P47806); assay: Hh pathway activation mediated by overexpression of Gli1; format: cell-based; conditions: for Inhibition of Hh pathway activity induced by Gli1 overexpression: NIH-3T3 cells, Gli-dependent firefly luciferase; for IC50: NIH-3T3 cells overexpressing Gli1, read-out: IC50 (uM) Gli1 Transfected or Infection
T1 construct: expressed in transfected cells; host or cells: NIH-3T3
T1 sequence (P47806 1-1111): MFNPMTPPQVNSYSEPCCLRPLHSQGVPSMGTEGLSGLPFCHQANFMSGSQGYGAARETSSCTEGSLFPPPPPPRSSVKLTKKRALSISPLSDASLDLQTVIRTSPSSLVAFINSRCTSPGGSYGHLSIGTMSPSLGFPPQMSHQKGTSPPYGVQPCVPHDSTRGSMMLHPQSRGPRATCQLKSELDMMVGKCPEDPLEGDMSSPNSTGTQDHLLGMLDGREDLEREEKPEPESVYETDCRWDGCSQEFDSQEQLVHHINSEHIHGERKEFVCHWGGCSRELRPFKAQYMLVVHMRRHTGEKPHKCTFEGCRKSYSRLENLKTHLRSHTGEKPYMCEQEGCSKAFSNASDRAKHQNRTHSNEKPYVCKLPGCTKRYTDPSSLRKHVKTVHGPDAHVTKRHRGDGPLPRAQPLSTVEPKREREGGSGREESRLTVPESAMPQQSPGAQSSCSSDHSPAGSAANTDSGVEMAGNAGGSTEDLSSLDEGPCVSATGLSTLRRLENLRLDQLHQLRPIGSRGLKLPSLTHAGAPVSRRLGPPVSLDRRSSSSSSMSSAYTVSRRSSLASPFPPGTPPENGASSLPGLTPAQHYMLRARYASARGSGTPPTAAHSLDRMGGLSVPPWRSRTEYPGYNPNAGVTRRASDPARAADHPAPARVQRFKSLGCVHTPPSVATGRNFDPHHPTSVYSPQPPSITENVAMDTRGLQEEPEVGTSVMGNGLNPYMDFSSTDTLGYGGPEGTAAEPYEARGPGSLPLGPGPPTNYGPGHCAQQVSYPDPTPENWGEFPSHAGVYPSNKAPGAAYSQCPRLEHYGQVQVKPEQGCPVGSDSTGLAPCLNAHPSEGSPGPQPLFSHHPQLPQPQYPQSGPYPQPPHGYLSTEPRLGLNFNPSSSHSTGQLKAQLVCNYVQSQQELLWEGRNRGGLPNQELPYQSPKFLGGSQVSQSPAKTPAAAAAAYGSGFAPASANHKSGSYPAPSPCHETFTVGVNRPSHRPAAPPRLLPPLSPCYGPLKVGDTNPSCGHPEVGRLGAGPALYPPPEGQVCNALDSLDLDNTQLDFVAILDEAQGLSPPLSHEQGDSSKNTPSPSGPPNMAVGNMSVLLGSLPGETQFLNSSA
Experimental: Hh pathway activation mediated by the overexpression of Gli, Gli2, Gli2αPKA, or Gli2αGSK. […] The cells were co-transfected the following day with 220 ng/well pcDNA-derived Gli1, Gli2, or Gli2 phosphosite mutant expression vectors and 80 ng/well of a 1:15 mixture of phRLTK (Promega) and 8XGIiBS-FL. After transfection, cells were grown to confluence (approximately 48 h). The cell were then incubated for an additional 28-32 h in DMEM containing 0.5% CS, 100 U/mL penicillin, 0.1 mg/mL streptomycin, and either DMSO, 50 μM forskolin, 50 μM LY294002, or various concentrations of the HPIs. Firefly and Renilla luciferase activities were measured using a dual luciferase kit and a Veritas microplate luminometer.

Smo = Smo (Mus musculus, UniProt P56726); assay: BODIPY-cyclopamine/Smo binding assay; design: expressed in transfected cells; host or cells: HEK-293T; species or system murine; conditions: 5 nM BODIPY-cyclopamine, Smo-overexpressing HEK-293T cells, HPIs 20 μM
Smo, sequence (P56726 33-793): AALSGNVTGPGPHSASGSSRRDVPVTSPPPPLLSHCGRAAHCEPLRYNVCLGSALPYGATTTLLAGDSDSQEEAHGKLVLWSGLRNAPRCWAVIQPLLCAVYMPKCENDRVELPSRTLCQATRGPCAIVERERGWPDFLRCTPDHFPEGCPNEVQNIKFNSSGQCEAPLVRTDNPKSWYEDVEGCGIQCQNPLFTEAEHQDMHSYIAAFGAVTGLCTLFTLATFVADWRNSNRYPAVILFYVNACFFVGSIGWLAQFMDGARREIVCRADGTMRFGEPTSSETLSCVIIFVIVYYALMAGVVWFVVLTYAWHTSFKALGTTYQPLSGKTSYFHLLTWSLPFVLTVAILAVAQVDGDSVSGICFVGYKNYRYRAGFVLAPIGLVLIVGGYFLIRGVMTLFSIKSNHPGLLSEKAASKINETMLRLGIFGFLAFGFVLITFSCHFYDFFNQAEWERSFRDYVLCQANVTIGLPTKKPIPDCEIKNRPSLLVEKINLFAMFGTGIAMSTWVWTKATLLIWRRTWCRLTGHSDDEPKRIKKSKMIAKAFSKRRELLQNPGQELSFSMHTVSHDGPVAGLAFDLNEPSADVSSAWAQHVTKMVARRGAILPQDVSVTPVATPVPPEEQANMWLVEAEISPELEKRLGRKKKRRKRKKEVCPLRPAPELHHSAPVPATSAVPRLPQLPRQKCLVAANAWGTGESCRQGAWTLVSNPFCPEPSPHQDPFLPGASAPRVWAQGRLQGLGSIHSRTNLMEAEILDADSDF
Experimental: BODIPY-cyclopamine/Smo binding assay. Smo-binding assays were conducted with BODIPY-cyclopamine and Smooverexpressing and HEK-293T cells as previously described, using a CMV-promoter based SV40 origin-containing expression construct for Smo-Myc3 (murine Smo containing three consecutive Myc epitopes at the C-terminus). […] The cells were cultured until they reached 55 to 65% confluency (14-18 h), after which they were transfected with the Smo-Myc3 expression construct and FuGENE (Roche) according to the manufacturer's protocols. 24 h after transfection, the cells were washed with phosphate-buffered saline (PBS) and cultured in DMEM containing 0.5% FBS, 5 nM BODIPY-cyclopamine, and individual HPIs (20 μM). After 30 min, 10 μM Hoescht 33342 was added to each well, and the HPIs were incubated with the cells for an additional 60 min. The cells were then washed two times with PBS buffer, mounted in Prolong Gold (Invitrogen) and immediately imaged using a DM4500B compound microscope (Leica).

Hh pathway = assay: Shh-LIGHT2 assay for Hh pathway activation (Gli-dependent firefly luciferase); format: cell-based
Experimental: Shh-LIGHT2 assay for Hh pathway activation and library screening conditions. h-N-conditioned medium was prepared as previously described. […] For 96-well plate assays, Shh-LIGHT2 cells were seeded into each plate (10,000 cells/well) and cultured to confluency. The Shh-LIGHT2 cells were then grown in DMEM containing 0.5% CS, 100 U/mL penicillin, 0.1 mg/mL streptomycin, either 5% Shh-N-conditioned medium or 500 nM SAG, and various concentrations of the HPIs. After the cells were cultured for another 30 h, the resulting firefly and Renilla luciferase activities were measured using a Dual Luciferase Reporter kit (Promega) and a Veritas microplate luminometer (Turner Biosystems).
When the cells reached >90% confluency, they were removed by trypsinization and diluted to a final volume of 50 mL medium. This cell suspension was then plated into clear-bottom, white-walled 384-well plates using a Titertek Multidrop dispenser (50 μL/well) and the cells were cultured until they reached confluency (3-4 days). […] The plates were then placed into an automated Staccato system (Caliper Life Sciences), which includes an automated CO2 incubator. An automated protocol was then run, in 3 which a Multidrop dispenser added 10 μL of a SAG solution in 0.5% CS medium (final SAG concentration of 500 nM) to columns 1-22 and 100 nL of each compound solution was added to the plates using a V&P Scientific pin tool, resulting in a final compound screening concentration of 10 μM. The SAG-free wells were used as negative controls. After 28-32 h, the assay medium was manually removed and the plates were frozen. To assay the firefly luciferase activities, the plates were thawed and placed into a Twister II stacker in the Staccato system. Bright-Glo luciferase substrate (Promega) was added by the Multidrop dispenser and the plates were analyzed on an Analyst GT microplate reader (2 min in the dark, 0.2 sec integration/well; Molecular Devices). Hits were defined as compounds that reduce the firefly luciferase signal by at least 50% compared to inhibitor-free controls. Primary hits were then re-tested in duplicate in an eight-point, 1:1 serially diluted doseresponse curve with a starting concentration of 20 μM. In these experiments, the median inhibitory concentration (IC50) for both firefly and Renilla luciferase were determined using a Dual-Glo kit (Promega).

[1] = SAG-stimulated Shh-LIGHT2 cells, firefly luciferase, read-out: median inhibitory concentrations (IC50s) in the screen
[2] = Shh Light2, stimulated with 500 nM SAG, read-out: IC50 (uM) SAG/Shh-LIGHT2 cells
[3] = Shh Light2, stimulated with Shh-N-conditioned medium, read-out: IC50 (uM) Shh/Shh-LIGHT2 cells

SMILES	Inhibition of Hh pathway activity induced by Gli1 overexpression (Gli1; listed as HPI-1)	BODIPY-cyclopamine competition (Smo)	IC50 (Hh pathway; [1]) [µM]	IC50 (Hh pathway; [2]) [µM]	IC50 (Hh pathway; [3]) [µM]	IC50 (Gli1) [µM]	Toxicity noted in Gli1 Transfected or Infection column (Gli1)	Inhibition of Hh pathway activity induced by Gli1 overexpression (Gli1; listed as HPI-3)	IC50 (Hh pathway; Shh Light2, read-out: IC50 (uM) SAG/Shh-LIGHT2 cells) [µM]	IC50 (Hh pathway; Shh Light2, read-out: IC50 (uM) Shh/Shh-LIGHT2 cells) [µM]	Inhibition of Hh pathway activity induced by Gli1 overexpression (Gli1)	Inhibition of Hh pathway activity induced by Gli1 overexpression (Gli1; listed as HPI-4)
COCCOC(=O)C1=C(C)NC2=C(C(=O)CC(c3ccccc3OC)C2)C1c1cccc(O)c1 (mixture of isomers) [Compound 8, 4-(3-Hydroxy-phenyl)-7-(2-methoxy-phenyl)-2-methyl-5-oxo-1,4,5,6,7,8-hexahydro-quinoline-3-carboxylic acid 2-methoxy-ethyl ester]	inhibit Gli-induced firefly luciferase expression in a dose-dependent manner; also recorded: inhibits	No	< 10	1.5	1.3							
N#Cc1cc2c(nc1SCC(=O)Nc1nc3ccccc3s1)CCC2 [Compound 1]		No		0.21	0.25	1						
CCCCNC(=N)C(C)c1ccc(CC(C)C)cc1 (centres unmarked) [Compound 2]		No		2.2	1.6	> 30						
Cc1cc(/C=c2\sc3nc4ccccc4n3c2=O)c(C)n1C(C)C [Compound 3]		No		0.55	0.5	1						
O=C(Nc1cccc2ccccc12)OC[C@@H]1CCCN2CCCC[C@H]12 [Compound 4]		No		4	1.8	> 30						
CCC(C)NS(=O)(=O)c1ccc(Cc2ccc(S(=O)(=O)NC(C)CC)cc2)cc1 (centres unmarked) [Compound 5]		No		0.8	1	7						
CCOC(=O)c1cc2c(=O)n3ccccc3nc2n(C(C)C)c1=NC(=O)c1cc(OC)cc(OC)c1 [Compound 6]		No		1	1	1.5						
CCN1CCCC1CNC(=O)C1CCN(c2nc3c(C)cc(C)cc3s2)CC1 (centres unmarked) [Compound 7]		No		1	1.6	> 10	(Toxic at 30)					
CCOC(=O)c1cn(-c2ccccc2)nc1-c1ccc(OC)c(OC)c1 [Compound 9]		No		5	5	> 30						
O=S(=O)(Nc1cc(Cl)c(Cl)cc1Cl)c1ccc(F)cc1 [Compound 10]		No		2.2	2.2	2						
OCCNc1nc(N2CCN(c3ccccc3)CC2)nc2ccccc12 [Compound 11]		No	< 10	1.5	2	> 30		no significant activity; also recorded: inactive				
CC(C)(C)N(CCNS(=O)(=O)c1ccc(-c2cc(C(F)(F)F)no2)s1)Cc1ccco1 [Compound 12]		No		2	2	4						
CN1CCN(C2Cc3ccccc3Sc3ccccc32)CC1 (centres unmarked) [Compound 13]		No		1.6	1.4	> 30						
CCOc1ccc2ncc(C(=O)c3ccc(C)cc3)c(N3CCCC3)c2c1 [Compound 14]		No				> 30			5.5	5.5		
O=C(Nc1nnc(S(=O)(=O)N2CCCCC2)s1)c1cccc(Br)c1 [Compound 15]		No		5	4.5	12						
CCOc1ccc(CCNc2cnnc3c(Cl)cccc23)cc1OCC [Compound 16]		No		8	4.5	> 30						
COc1ccc(OC)c2c1cc1n2CC(C)(C(=O)NC2CCCCCCC2)N(CCN(C)C)C1=O (centres unmarked) [Compound 17]		No	< 10	2	2	> 30					entirely due to a moderate increase in Renilla luciferase activity	
N#CC(C(=O)c1ccc(Cl)cc1Cl)=C1NC(=O)c2ccccc2N1 [Compound 18]		No	< 10	8	7.5	> 10						no significant activity; also recorded: inactive
